In patent publication US20220177466A1, “DEGRADERS OF KELCH-LIKE ECH-ASSOCIATED PROTEIN 1 (KEAP1)” (DANA-FARBER CANCER INSTITUTE, INC., priority 2019, published 2022):

How the values were obtained:
Type in all cases: cell-based
KEAP1 [1] = molecular target: T1, KEAP1 (Homo sapiens, UniProt Q14145); assay: Rescue of degrader-induced KEAP1 degradation by pretreatment in MM.1S cells, immunoblot; conditions: pretreatment 2 h (10 μM DGY-03-118, 10 μM Lenalidomide, 0.5 μM Bortezomib, 1 μM MLN4924); for rescue of the KEAP1 degradation induced by compound 1: then 5 μM compound 1 for 2 h, FIG. 4A; for rescue of the KEAP1 degradation induced by compound 4: then 5 μM compound 4 for 2 h, FIG. 4B
T1 construct: endogenous in cells; host or cells: MM.1S cells
Description: (§1) MM.1S cells were treated with 0, 0.1 μM, 1 μM, or 10 μM of compound 1 or compound 4 or 0.25 μM THAL-SNS-032 (a known CDK9 degrader, as a positive control for CDK9 degradation) for 16 hours. Cells were then lysed in RIPA buffer (Sigma) containing protease/phosphatase inhibitor cocktail (Roche). The protein concentrations were measured by bicinchoninic acid assay (BCA) analysis (Pierce™). Equal amounts of protein were resolved by 4-12% Tris-Base gels (Invitrogen), and then transferred to the Immuno-Blot polyvinylidene difluoride (PVDF) membrane (BioRad), and immunoblotted with primary antibodies against KEAP1 (cell signaling), CRBN (cell signaling), CDK9 (cell signaling) and R-Actin (cell signaling), and then immunoblotted with IRDye® 800-labeled goat anti-rabbit IgG and IRDye®800-labeled goat anti-mouse IgG (LI-COR) secondary antibodies. The membranes were detected on Odyssey CLx system.
MM.1S cells were pretreated with 10 μM DGY-03-118 (the parental compound and known KEAP1 inhibitor), 10 μM Lenalidomide (CRBN ligand), 0.5 μM Bortezomib (a proteasome inhibitor) and 1 μM MLN4924 (a neddylation inhibitor) for 2 h, and then treated with 5 μM compound 1 for 2 h. Cells were lysed and immunoblotted as described above with antibodies to KEAP1 and β-Actin.
MM.1S cells were pretreated with 10 μM DGY-03-118 (the parental compound and known KEAP1 inhibitor), 10 μM Lenalidomide (CRBN ligand), 0.5 μM Bortezomib (a proteasome inhibitor) and 1 μM MLN4924 (a neddylation inhibitor) for 2 h, and then treated with 5 μM compound 4 for 2 h. Cells were lysed and immunoblotted as described above with antibodies to KEAP1 and β-Actin.

CDK9 = molecular target: T2, CDK9 (Homo sapiens, UniProt P50750+Q96SW2); assay: CDK9 degradation in MM.1S cells, immunoblot (positive control); conditions: 0.25 μM, 16 hours, FIG. 1
T2 construct: endogenous in cells; host or cells: MM.1S cells
Description: as §1

IKZF3 = molecular target: T3, IKZF3 (Homo sapiens, UniProt Q9UKT9); assay: Off-target degradation in MM.1S cells, immunoblot: IKZF3; conditions: 5 μM, up to 6 h, FIG. 2
T3 construct: endogenous in cells; host or cells: MM.1S cells
Description: as §1
(§2) MM.1S cells were treated with 0 or 5 μM compound 1 or compound 4 for 0, 2, 4, or 6 h. Cells were lysed and immunoblotted as described above with antibodies to KEAP1 (cell signaling), CRBN (cell signaling), IKZF1 (cell signaling), IKZF3 (cell signaling), GSPT1 (abcam) and R-Actin (cell signaling).

KEAP1 [2] = molecular target: T1, KEAP1; assay: KEAP1 levels after washout in MM.1S cells, immunoblot; conditions: 5 μM for 2 h, washout at 2, 4, 7 and 24 hours, FIG. 5A/5B
Description: as §1
MM.1S cells were treated with 0 or 5 μM compound 1 for 2 h, followed by washout at 2, 4, 7, and 24 hours. Cells were lysed and immunoblotted as described above with antibodies to KEAP1 and β-Actin.
MM.1S cells were treated with 0 or 5 μM compound 4 for 2 h, followed by washout at 2, 4, 7, and 24 hours. Cells were lysed and immunoblotted as described above with antibodies to KEAP1 and β-Actin.

KEAP1 [3] = molecular target: T1, KEAP1; assay: Knockdown of KEAP1 in MM.1S cells, immunoblot, concentration series, 16 h; conditions: 0.1 μM, 1 μM or 10 μM, FIG. 1
Description: as §1

IKZF1 = molecular target: T4, IKZF1 (Homo sapiens, UniProt Q13422); assay: Off-target degradation in MM.1S cells, immunoblot: IKZF1; conditions: 5 μM, up to 6 h, FIG. 2
T4 construct: endogenous in cells; host or cells: MM.1S cells
Description: as §1, §2

KEAP1 [4] = molecular target: T1, KEAP1; assay: KEAP1 degradation in CRBN−/− MM.1S cells, immunoblot; conditions: 5 μM, 0, 2, 4 or 6 h, FIG. 3
Description: as §1
(§3) Wild-type (WT) (left panel) or CRBN−/− (right panel) MM.1 S cells were treated with 0 or 5 μM compound 1 or compound 4 for 0, 2, 4, or 6 h. Cells were lysed and immunoblotted as described above with antibodies to KEAP1 (cell signaling) and R-Actin (cell signaling).

KEAP1 [5] = molecular target: T1, KEAP1; assay: KEAP1 degradation in wild-type (WT) MM.1S cells, immunoblot; conditions: 5 μM, 0, 2, 4 or 6 h, FIG. 3
Description: as §1, §3

GSPT1 = molecular target: T5, GSPT1 (Homo sapiens, UniProt P15170); assay: Off-target degradation in MM.1S cells, immunoblot: GSPT1; conditions: 5 μM, up to 6 h, FIG. 2
T5 construct: endogenous in cells; host or cells: MM.1S cells
Description: as §1, §2

T1 sequence (Q14145 whole entry): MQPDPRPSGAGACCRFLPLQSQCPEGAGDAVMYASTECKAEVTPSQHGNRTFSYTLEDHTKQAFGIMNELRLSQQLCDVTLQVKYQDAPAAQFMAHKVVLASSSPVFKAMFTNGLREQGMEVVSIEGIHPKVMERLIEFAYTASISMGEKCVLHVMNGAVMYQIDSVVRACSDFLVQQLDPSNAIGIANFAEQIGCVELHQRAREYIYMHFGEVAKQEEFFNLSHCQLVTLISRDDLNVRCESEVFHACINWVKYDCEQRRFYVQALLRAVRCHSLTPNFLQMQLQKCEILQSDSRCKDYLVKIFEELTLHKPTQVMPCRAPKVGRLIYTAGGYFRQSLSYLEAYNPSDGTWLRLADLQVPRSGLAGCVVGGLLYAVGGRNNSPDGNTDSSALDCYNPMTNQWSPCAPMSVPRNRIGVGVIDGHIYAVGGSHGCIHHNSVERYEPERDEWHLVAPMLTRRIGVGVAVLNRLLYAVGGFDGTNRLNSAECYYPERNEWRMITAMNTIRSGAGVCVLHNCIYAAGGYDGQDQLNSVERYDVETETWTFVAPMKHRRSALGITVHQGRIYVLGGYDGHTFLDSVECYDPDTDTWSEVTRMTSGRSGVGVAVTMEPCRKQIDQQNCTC
T4 sequence (Q96SW2 whole entry partner): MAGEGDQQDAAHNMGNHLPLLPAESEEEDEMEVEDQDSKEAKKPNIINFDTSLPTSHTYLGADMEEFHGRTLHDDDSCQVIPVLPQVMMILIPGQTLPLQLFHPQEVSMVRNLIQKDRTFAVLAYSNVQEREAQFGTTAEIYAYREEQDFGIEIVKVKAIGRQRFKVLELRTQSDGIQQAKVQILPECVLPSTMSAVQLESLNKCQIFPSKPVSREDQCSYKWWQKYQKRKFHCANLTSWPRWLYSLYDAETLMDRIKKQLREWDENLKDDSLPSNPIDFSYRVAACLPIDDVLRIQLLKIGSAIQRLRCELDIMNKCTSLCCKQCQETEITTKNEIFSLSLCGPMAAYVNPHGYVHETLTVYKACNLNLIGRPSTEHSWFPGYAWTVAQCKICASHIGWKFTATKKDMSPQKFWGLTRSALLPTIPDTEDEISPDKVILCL
T4 sequence (Q16531 whole entry partner): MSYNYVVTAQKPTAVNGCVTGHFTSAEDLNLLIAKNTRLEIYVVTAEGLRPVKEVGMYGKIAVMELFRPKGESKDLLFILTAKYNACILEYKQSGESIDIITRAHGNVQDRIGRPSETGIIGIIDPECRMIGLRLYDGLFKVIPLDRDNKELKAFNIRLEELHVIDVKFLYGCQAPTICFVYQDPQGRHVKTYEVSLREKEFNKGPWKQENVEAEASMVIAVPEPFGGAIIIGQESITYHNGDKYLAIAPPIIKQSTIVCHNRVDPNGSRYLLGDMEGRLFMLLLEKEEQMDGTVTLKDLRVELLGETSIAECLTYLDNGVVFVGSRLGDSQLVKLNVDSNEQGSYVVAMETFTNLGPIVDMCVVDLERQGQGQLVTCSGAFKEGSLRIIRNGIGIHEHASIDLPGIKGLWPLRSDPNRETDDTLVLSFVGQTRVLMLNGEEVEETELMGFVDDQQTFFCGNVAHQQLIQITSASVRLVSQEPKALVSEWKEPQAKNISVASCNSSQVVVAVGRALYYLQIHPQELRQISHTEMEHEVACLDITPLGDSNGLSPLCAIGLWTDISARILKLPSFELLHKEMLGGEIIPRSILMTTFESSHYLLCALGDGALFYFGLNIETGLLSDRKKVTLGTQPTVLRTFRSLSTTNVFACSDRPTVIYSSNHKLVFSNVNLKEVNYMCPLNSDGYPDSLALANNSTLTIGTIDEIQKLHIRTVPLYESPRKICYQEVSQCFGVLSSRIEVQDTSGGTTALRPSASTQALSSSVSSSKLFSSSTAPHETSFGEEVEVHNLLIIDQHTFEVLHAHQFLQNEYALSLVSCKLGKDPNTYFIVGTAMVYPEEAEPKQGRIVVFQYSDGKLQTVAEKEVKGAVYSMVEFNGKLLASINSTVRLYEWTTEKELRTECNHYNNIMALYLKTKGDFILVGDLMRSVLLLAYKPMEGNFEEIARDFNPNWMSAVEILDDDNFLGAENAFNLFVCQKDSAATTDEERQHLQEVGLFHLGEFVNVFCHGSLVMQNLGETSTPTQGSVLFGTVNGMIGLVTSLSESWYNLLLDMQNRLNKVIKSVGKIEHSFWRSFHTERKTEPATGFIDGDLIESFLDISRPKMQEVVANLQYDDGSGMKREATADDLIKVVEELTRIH
T4 sequence (Q13422 whole entry): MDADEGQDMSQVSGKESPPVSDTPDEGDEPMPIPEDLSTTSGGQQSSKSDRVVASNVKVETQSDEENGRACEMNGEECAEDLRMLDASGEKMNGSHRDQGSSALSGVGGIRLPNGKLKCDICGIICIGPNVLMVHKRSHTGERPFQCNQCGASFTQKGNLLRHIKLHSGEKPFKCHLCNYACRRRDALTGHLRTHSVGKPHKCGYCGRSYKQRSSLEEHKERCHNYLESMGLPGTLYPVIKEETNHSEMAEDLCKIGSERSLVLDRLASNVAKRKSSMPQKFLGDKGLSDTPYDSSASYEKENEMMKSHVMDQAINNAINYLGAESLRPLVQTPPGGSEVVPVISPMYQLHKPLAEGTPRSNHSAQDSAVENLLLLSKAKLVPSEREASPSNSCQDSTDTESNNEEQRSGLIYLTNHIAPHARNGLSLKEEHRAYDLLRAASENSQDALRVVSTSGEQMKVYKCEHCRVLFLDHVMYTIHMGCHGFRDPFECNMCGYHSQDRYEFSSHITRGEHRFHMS
T5 sequence (Q96SW2 whole entry partner): as the sequence (Q96SW2 whole entry partner) above
T5 sequence (Q16531 whole entry partner): as the sequence (Q16531 whole entry partner) above
T5 sequence (P15170 whole entry): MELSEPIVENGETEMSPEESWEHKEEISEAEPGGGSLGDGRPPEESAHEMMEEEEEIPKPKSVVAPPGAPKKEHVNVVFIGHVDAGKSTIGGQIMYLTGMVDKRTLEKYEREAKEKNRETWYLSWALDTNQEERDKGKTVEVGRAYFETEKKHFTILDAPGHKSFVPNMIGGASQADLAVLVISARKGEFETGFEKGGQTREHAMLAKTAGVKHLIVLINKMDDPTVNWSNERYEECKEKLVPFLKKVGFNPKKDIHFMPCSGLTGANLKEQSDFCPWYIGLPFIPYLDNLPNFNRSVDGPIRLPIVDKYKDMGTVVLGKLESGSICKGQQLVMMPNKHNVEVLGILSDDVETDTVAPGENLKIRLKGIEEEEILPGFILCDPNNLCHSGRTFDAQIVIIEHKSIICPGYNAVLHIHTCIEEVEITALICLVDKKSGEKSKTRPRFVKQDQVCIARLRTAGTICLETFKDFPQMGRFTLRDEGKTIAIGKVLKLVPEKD
T3 sequence (Q96SW2 whole entry partner): as the sequence (Q96SW2 whole entry partner) above
T3 sequence (Q16531 whole entry partner): as the sequence (Q16531 whole entry partner) above
T3 sequence (Q9UKT9 whole entry): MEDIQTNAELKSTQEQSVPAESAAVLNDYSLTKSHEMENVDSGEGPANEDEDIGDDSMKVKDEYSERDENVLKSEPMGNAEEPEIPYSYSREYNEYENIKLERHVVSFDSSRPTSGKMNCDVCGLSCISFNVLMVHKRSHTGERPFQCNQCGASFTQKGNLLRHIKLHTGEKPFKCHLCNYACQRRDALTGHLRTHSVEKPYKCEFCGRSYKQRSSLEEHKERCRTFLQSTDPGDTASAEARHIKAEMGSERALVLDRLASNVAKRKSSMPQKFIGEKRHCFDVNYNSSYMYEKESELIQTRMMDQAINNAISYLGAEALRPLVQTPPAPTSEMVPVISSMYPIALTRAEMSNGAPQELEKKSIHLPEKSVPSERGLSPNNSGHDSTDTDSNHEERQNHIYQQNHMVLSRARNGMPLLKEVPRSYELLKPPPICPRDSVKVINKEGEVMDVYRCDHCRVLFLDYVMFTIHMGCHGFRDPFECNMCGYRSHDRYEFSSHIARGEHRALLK

Structure (SMILES) | rescue of the KEAP1 degradation induced by compound 1 (KEAP1 [1]) | rescue of the KEAP1 degradation induced by compound 4 (KEAP1 [1]) | CDK9 degradation (CDK9) | degradation of potential off target IKZF3 (IKZF3) | KEAP1 levels after washout relative to vehicle-treated cells (KEAP1 [2]) | degradation of KEAP1 (KEAP1 [3]) | degradation of potential off target IKZF1 (IKZF1) | KEAP1 degradation in CRBN−/− MM.1S cells (KEAP1 [4]) | KEAP1 degradation in WT MM.1S cells (KEAP1 [5]) | degradation of potential off target GSPT1 (GSPT1)
CC(C)C[C@H](NC(=O)[C@H](Cc1ccccc1)NC(=O)c1cnccn1)B(O)O [Bortezomib] | rescued the KEAP1 degradation | rescued the KEAP1 degradation | – | – | – | – | – | – | – | –
Nc1cccc2c1CN(C1CCC(=O)NC1=O)C2=O (stereo not drawn) [Lenalidomide] | rescued the KEAP1 degradation | rescued the KEAP1 degradation | – | – | – | – | – | – | – | –
NS(=O)(=O)OC[C@@H]1C[C@@H](n2ccc3c(N[C@H]4CCc5ccccc54)ncnc32)C[C@@H]1O [MLN4924] | rescued the KEAP1 degradation | rescued the KEAP1 degradation | – | – | – | – | – | – | – | –
CC(C)(C)c1cnc(CSc2cnc(NC(=O)C3CCN(CC(=O)NCCOCCOCCOCCNc4cccc5c4C(=O)N(C4CCC(=O)NC4=O)C5=O)CC3)s2)o1 (stereo not drawn) [THAL-SNS-032] | – | – | induced CDK9 degradation | – | – | – | – | – | – | –
COc1cc(C(CC(=O)O)c2ccc(C)c(CN3C[C@@H](C)Oc4cc(CCCCCCNC(=O)COc5cccc6c5C(=O)N(C5CCC(=O)NC5=O)C6=O)ccc4S3(=O)=O)c2)cc2nnn(C)c12 (stereo partly drawn) [compound 1, 3-(3-(((4R)-7-(6-(2-((2-(2,6-dioxopiperidin-3-yl)-1,3-dioxoisoindolin-4-yl)oxy)acetamido)hexyl)-4-methyl-1,1-dioxido-3,4-dihydro-2H-benzo[b][1,4,5]oxathiazepin-2-yl)methyl)-4-methylphenyl)-3-(7-methoxy-1-methyl-1H-benzo[d][1,2,3]triazol-5-yl)propanoic Acid] | – | – | – | did not induce the degradation | remained below levels in vehicle-treated cells 4 h after washout | induced the degradation of KEAP1 | did not induce the degradation | did not induce KEAP1 degradation | induced KEAP1 degradation | did not induce the degradation
COc1cc(C(CC(=O)O)c2ccc(C)c(CN3C[C@@H](C)Oc4cc(CCCCCCNC(=O)COc5cc6c7c(cccc7c5)C(=O)N(C5CCC(=O)NC5=O)C6=O)ccc4S3(=O)=O)c2)cc2nnn(C)c12 (stereo partly drawn) [compound 4, 3-(3-(((4R)-7-(6-(2-((2-(2,6-dioxopiperidin-3-yl)-1,3-dioxo-2,3-dihydro-1H-benzo[de]isoquinolin-5-yl)oxy)acetamido)hexyl)-4-methyl-1,1-dioxido-3,4-dihydro-2H-benzo[b][1,4,5]oxathiazepin-2-yl)methyl)-4-methylphenyl)-3-(7-methoxy-1-methyl-1H-benzo[d][1,2,3]triazol-5-yl)propanoic Acid] | – | – | – | did not induce the degradation | remained below levels in vehicle-treated cells even 24 h after washout | induced the degradation of KEAP1 | did not induce the degradation | did not induce KEAP1 degradation | induced KEAP1 degradation | did not induce the degradation
